{"source": "paper PMC5762315", "about": "“Inhibition of polo-like kinase 4 (PLK4): a new therapeutic option for rhabdoid tumors and pediatric medulloblastoma” (Oncotarget, 2017)", "test_in_all_cases": "biochemical", "assay_type_in_all_cases": "biochemical", "key": {"various kinases [1]": {"target": "T1, various kinases (Homo sapiens, UniProt Q9HBY8)", "T1 sequence (Q9HBY8 1-367)": "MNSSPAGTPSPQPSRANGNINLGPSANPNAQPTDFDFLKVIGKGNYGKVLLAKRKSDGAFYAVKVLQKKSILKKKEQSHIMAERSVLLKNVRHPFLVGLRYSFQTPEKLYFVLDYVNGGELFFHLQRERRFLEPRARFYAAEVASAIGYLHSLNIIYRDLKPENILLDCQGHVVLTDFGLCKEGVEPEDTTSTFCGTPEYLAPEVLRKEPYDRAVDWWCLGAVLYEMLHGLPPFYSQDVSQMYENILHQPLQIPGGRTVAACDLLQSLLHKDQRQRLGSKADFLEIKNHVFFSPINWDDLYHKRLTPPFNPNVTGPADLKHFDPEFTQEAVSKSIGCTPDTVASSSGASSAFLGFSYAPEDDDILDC", "conditions": "kinase SGK2; ZLYTE"}, "various kinases [2]": {"target": "various kinases (Homo sapiens, UniProt P07948)", "conditions": "LYN A"}, "various kinases [3]": {"target": "various kinases (Homo sapiens, UniProt Q8N568)", "conditions": "DCAMKL2 (DCK2)"}, "various kinases [4]": {"target": "various kinases (Homo sapiens, UniProt P54753)", "conditions": "EPHB3"}, "various kinases [5]": {"target": "various kinases (Homo sapiens, UniProt Q02750)", "conditions": "MAP2K1 (MEK1)"}, "various kinases [6]": {"target": "various kinases (Homo sapiens, UniProt P49760)", "sequence (P49760 whole entry)": "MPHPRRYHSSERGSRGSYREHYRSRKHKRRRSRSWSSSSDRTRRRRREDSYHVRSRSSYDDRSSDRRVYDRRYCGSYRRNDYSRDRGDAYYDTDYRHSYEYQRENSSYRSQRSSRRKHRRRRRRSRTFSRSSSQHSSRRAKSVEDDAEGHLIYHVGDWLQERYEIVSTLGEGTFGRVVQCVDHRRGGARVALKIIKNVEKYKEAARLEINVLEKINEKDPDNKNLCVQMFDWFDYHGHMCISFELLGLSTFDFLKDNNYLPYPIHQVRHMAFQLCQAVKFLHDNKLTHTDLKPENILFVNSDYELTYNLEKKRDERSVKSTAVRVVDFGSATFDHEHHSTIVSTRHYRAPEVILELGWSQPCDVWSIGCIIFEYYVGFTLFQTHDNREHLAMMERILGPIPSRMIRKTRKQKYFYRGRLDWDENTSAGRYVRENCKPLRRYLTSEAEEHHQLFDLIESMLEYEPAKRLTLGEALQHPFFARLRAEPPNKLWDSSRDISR", "conditions": "CLK2"}, "various kinases [7]": {"target": "various kinases (Homo sapiens, UniProt Q9UBS0)", "sequence (Q9UBS0 whole entry)": "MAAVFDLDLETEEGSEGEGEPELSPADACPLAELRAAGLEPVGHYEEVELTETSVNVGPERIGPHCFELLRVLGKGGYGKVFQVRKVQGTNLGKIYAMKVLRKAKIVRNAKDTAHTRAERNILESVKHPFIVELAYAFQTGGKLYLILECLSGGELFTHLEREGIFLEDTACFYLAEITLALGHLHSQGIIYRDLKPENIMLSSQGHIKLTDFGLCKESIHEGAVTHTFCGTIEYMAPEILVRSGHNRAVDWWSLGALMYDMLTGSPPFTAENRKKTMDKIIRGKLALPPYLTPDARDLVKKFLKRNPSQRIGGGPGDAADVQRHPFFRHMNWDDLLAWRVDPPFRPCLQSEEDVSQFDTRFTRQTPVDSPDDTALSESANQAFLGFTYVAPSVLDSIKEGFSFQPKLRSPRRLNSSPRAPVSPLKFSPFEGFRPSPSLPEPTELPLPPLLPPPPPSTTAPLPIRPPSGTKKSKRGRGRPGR", "conditions": "kinase RPS6KB2 (p70S6Kb); ZLYTE"}, "various kinases [8]": {"target": "various kinases (Homo sapiens, UniProt P00533, G719S)", "conditions": "EGFR (ErbB1) G719S"}, "various kinases [9]": {"target": "various kinases (Homo sapiens, UniProt P00519, E255K)", "conditions": "ABL1 E255K"}, "various kinases [10]": {"target": "various kinases (Homo sapiens, UniProt Q9UM73)", "conditions": "ALK"}, "various kinases [11]": {"target": "various kinases (Homo sapiens, UniProt P34947)", "conditions": "GRK5"}, "various kinases [12]": {"target": "various kinases (Homo sapiens, UniProt Q9H0K1)", "sequence (Q9H0K1 whole entry)": "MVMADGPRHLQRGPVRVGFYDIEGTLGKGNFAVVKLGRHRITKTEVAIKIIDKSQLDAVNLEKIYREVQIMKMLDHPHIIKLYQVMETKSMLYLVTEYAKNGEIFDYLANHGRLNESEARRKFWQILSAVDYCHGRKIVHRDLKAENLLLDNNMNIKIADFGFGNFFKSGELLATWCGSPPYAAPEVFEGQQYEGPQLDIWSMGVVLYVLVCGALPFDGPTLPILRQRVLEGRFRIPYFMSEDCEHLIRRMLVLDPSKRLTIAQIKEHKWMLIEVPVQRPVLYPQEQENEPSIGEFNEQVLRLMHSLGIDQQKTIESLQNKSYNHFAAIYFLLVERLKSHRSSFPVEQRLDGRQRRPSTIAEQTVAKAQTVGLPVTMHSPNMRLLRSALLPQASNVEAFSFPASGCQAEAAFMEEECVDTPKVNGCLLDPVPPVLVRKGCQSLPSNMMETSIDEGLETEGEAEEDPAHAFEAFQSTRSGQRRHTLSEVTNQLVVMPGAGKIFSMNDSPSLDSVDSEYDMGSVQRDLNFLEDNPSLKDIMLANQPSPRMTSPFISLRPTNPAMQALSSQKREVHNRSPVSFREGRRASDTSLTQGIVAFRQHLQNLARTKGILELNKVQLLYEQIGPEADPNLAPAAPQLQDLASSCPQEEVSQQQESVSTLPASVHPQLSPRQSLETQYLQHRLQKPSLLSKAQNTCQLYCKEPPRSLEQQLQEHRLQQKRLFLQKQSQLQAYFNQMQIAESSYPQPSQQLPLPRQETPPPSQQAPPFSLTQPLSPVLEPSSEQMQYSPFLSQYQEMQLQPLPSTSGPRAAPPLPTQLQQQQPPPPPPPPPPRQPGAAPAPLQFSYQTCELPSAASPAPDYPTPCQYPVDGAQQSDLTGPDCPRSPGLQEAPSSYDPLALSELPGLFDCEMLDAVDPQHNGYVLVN", "conditions": "kinase SNF1LK2; ZLYTE"}, "various kinases [13]": {"target": "various kinases (Homo sapiens, UniProt O00418)", "conditions": "EEF2K"}, "various kinases [14]": {"target": "various kinases (Homo sapiens, UniProt P31751)", "conditions": "AKT2 (PKB beta)"}, "various kinases [15]": {"target": "various kinases (Homo sapiens, UniProt Q9UPE1)", "sequence (Q9UPE1 whole entry)": "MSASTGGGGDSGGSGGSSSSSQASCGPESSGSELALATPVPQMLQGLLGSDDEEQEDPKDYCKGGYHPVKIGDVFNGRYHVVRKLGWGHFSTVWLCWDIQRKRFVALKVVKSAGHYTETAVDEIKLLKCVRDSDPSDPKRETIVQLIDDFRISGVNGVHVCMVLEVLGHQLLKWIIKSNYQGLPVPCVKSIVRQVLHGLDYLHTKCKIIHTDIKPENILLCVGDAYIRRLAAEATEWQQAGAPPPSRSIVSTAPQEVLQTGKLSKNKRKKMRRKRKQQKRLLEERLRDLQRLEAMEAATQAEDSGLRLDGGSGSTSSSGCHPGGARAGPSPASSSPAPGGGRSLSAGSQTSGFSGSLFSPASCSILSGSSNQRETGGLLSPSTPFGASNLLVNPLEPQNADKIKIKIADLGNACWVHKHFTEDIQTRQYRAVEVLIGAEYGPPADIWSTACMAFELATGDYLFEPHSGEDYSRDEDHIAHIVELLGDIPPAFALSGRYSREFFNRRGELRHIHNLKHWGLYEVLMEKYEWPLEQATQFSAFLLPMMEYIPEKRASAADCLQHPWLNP", "conditions": "kinase STK23 (MSSK1); ZLYTE"}, "various kinases [16]": {"target": "various kinases (Homo sapiens, UniProt Q8TD19)", "conditions": "NEK9"}, "various kinases [17]": {"target": "various kinases (Homo sapiens, UniProt Q13627)", "conditions": "DYRK1A"}, "various kinases [18]": {"target": "various kinases (Homo sapiens, UniProt Q14289)", "sequence (Q14289 whole entry)": "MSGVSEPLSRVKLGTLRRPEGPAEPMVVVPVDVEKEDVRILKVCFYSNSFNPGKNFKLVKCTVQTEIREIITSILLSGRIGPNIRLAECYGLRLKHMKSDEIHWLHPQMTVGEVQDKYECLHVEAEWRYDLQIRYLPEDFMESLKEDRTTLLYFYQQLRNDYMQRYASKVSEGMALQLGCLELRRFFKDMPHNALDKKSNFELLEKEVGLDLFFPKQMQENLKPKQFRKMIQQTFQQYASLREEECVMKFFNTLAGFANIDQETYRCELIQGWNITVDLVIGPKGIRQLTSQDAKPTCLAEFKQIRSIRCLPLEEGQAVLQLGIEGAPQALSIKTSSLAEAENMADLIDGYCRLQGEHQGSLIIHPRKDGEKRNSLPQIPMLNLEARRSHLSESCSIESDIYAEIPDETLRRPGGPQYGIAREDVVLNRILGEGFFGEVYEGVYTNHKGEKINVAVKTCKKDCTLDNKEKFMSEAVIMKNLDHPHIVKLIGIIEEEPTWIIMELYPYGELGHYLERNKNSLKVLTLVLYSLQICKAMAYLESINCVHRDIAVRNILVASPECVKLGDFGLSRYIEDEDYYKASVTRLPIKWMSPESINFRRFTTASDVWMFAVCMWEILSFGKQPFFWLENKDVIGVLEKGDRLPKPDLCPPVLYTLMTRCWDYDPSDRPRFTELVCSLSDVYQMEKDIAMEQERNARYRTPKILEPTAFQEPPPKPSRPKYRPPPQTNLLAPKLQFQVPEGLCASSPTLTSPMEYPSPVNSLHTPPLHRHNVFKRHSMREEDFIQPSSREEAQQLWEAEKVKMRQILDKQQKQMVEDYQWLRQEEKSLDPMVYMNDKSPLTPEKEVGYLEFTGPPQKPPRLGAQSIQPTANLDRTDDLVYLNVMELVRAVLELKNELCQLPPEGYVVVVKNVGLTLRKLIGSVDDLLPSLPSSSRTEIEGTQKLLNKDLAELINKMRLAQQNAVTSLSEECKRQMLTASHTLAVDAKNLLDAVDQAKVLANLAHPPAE", "conditions": "kinase PTK2B (FAK2); ZLYTE"}, "various kinases [19]": {"target": "various kinases (Homo sapiens, UniProt Q15418)", "sequence (Q15418 whole entry)": "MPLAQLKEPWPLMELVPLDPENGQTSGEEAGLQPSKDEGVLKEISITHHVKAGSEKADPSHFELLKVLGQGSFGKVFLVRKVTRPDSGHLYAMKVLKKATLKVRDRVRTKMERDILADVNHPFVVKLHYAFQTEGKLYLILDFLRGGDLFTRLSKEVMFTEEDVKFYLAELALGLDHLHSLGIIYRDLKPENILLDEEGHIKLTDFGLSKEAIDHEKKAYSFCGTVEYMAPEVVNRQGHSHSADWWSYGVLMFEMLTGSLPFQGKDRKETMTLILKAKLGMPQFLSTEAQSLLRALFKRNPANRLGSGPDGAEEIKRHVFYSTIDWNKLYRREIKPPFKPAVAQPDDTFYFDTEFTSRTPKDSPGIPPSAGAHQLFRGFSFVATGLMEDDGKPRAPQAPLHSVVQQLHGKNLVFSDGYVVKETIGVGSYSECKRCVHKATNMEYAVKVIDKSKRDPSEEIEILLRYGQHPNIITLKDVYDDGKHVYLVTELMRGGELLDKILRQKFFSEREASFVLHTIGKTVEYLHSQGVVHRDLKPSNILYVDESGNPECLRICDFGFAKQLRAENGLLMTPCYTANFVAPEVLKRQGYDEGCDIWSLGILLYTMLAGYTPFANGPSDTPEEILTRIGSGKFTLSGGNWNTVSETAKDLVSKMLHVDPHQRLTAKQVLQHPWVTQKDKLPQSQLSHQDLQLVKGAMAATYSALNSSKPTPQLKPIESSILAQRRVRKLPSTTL", "conditions": "kinase RPS6KA1 (RSK1); ZLYTE"}, "various kinases [20]": {"target": "various kinases (Homo sapiens, UniProt Q9Y5S2)", "conditions": "CDC42 BPB (MRCKB)"}, "various kinases [21]": {"target": "various kinases (Homo sapiens, UniProt Q8N4C8)", "conditions": "MINK1"}, "various kinases [22]": {"target": "various kinases (Homo sapiens, UniProt P29376)", "conditions": "LTK (TYK1)"}, "various kinases [23]": {"target": "various kinases (Homo sapiens, UniProt Q13882)", "sequence (Q13882 whole entry)": "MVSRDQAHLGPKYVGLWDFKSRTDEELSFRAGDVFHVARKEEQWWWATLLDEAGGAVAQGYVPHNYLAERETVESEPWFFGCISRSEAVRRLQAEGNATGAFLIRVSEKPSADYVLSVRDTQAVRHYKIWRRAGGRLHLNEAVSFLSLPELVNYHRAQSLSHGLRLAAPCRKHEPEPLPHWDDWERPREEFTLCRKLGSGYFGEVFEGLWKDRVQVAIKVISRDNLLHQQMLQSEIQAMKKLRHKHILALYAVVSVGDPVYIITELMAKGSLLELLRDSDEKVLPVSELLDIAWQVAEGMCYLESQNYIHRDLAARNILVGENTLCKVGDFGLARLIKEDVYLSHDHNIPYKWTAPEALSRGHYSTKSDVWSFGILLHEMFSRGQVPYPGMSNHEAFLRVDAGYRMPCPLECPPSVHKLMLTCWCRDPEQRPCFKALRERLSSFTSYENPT", "conditions": "kinase PTK6 (Brk); ZLYTE"}, "various kinases [24]": {"target": "various kinases (Homo sapiens, UniProt P36507)", "conditions": "MAP2K2 (MEK2)"}, "various kinases [25]": {"target": "various kinases (Homo sapiens, UniProt P08581, M1250T)", "conditions": "MET M1250T"}, "various kinases [26]": {"target": "various kinases (Homo sapiens, UniProt P14616)", "conditions": "INSRR (IRR)"}, "various kinases [27]": {"target": "various kinases (Homo sapiens, UniProt P27448)", "conditions": "MARK3"}, "various kinases [28]": {"target": "various kinases (Homo sapiens, UniProt P11309)", "sequence (P11309 whole entry)": "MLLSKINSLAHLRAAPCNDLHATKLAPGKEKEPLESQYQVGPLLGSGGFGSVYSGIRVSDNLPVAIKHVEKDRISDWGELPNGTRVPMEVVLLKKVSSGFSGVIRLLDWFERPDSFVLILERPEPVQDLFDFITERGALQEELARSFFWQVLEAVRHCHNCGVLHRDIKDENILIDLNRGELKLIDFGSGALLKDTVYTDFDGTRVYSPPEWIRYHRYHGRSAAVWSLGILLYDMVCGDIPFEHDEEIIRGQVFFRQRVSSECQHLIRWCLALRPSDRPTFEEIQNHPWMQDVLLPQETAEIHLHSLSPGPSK", "conditions": "PIM1"}, "various kinases [29]": {"target": "various kinases (Homo sapiens, UniProt P42345)", "conditions": "FRAP1 (mTOR)"}}, "note": "“And” between values parts separate entries of the source, which are not always exact repeats. Equal values may be shown once."}
{"molecule": "COc1ccc2c(c1)[C@]1(C[C@H]1c1ccc3c(/C=C/c4ccc(CN5C[C@@H](C)O[C@@H](C)C5)cc4)n[nH]c3c1)C(=O)N2", "note": "[CFI-400945]", "values": [{"measurement": "% Inhibition Average", "setting": "various kinases [1]", "value": 5, "unit": "%"}, {"measurement": "% Inhibition Duplicate #1", "setting": "various kinases [1]", "value": 4, "unit": "%"}, {"measurement": "% Inhibition Duplicate #2", "setting": "various kinases [1]", "value": 5, "unit": "%"}, {"measurement": "% Inhibition", "setting": "various kinases [2]", "value": "11% and 14%"}, {"measurement": "% Inhibition", "setting": "various kinases [3]", "value": "-7% and -1%"}, {"measurement": "% Inhibition", "setting": "various kinases [4]", "value": "3% and 2%"}, {"measurement": "% Inhibition", "setting": "various kinases [5]", "value": 9, "unit": "%"}, {"measurement": "% Inhibition", "setting": "various kinases [6]", "value": "0% and 7%"}, {"measurement": "% Inhibition Average", "setting": "various kinases [7]", "value": 5, "unit": "%"}, {"measurement": "% Inhibition Duplicate #1", "setting": "various kinases [7]", "value": 5, "unit": "%"}, {"measurement": "% Inhibition Duplicate #2", "setting": "various kinases [7]", "value": 4, "unit": "%"}, {"measurement": "% Inhibition", "setting": "various kinases [8]", "value": 5, "unit": "%"}, {"measurement": "% Inhibition", "setting": "various kinases [9]", "value": "39% and 36%"}, {"measurement": "% Inhibition", "setting": "various kinases [10]", "value": 51, "unit": "%"}, {"measurement": "% Inhibition", "setting": "various kinases [11]", "value": "5% and 3%"}, {"measurement": "% Inhibition Average", "setting": "various kinases [12]", "value": 5, "unit": "%"}, {"measurement": "% Inhibition Duplicate #1", "setting": "various kinases [12]", "value": 4, "unit": "%"}, {"measurement": "% Inhibition Duplicate #2", "setting": "various kinases [12]", "value": 5, "unit": "%"}, {"measurement": "% Inhibition", "setting": "various kinases [13]", "value": "2% and 3%"}, {"measurement": "% Inhibition", "setting": "various kinases [14]", "value": 3, "unit": "%"}, {"measurement": "% Inhibition Average", "setting": "various kinases [15]", "value": -1, "unit": "%"}, {"measurement": "% Inhibition Duplicate #1", "setting": "various kinases [15]", "value": -1, "unit": "%"}, {"measurement": "% Inhibition Duplicate #2", "setting": "various kinases [15]", "value": -2, "unit": "%"}, {"measurement": "% Inhibition", "setting": "various kinases [16]", "value": "10% and 4%"}, {"measurement": "% Inhibition", "setting": "various kinases [17]", "value": "2% and 4%"}, {"measurement": "% Inhibition Average", "setting": "various kinases [18]", "value": 3, "unit": "%"}, {"measurement": "% Inhibition Duplicate #1", "setting": "various kinases [18]", "value": 3, "unit": "%"}, {"measurement": "% Inhibition Duplicate #2", "setting": "various kinases [18]", "value": 3, "unit": "%"}, {"measurement": "% Inhibition Average", "setting": "various kinases [19]", "value": 7, "unit": "%"}, {"measurement": "% Inhibition Duplicate #1", "setting": "various kinases [19]", "value": 7, "unit": "%"}, {"measurement": "% Inhibition Duplicate #2", "setting": "various kinases [19]", "value": 6, "unit": "%"}, {"measurement": "% Inhibition", "setting": "various kinases [20]", "value": "-1% and 2%"}, {"measurement": "% Inhibition", "setting": "various kinases [21]", "value": "12% and 18%"}, {"measurement": "% Inhibition", "setting": "various kinases [22]", "value": 68, "unit": "%"}, {"measurement": "% Inhibition Average", "setting": "various kinases [23]", "value": 4, "unit": "%"}, {"measurement": "% Inhibition Duplicate #1", "setting": "various kinases [23]", "value": 5, "unit": "%"}, {"measurement": "% Inhibition Duplicate #2", "setting": "various kinases [23]", "value": 3, "unit": "%"}, {"measurement": "% Inhibition", "setting": "various kinases [24]", "value": 7, "unit": "%"}, {"measurement": "% Inhibition", "setting": "various kinases [25]", "value": 11, "unit": "%"}, {"measurement": "% Inhibition", "setting": "various kinases [26]", "value": "4% and 6%"}, {"measurement": "% Inhibition", "setting": "various kinases [27]", "value": "9% and 19%"}, {"measurement": "% Inhibition", "setting": "various kinases [28]", "value": "2% and 3%"}, {"measurement": "% Inhibition", "setting": "various kinases [29]", "value": "2% and 5%"}]}
